Assay results published in PubChem BioAssay AID248 (DTP/NCI, 2004).
“And” between values parts separate entries of the source, which are not always exact repeats. Equal entries are not always repeated. Inconclusive results and toxic doses are left out.

Tested on: L1210 leukemia ip in BDF1 mice, survival T/C
Test: NCI In Vivo Anticancer Drug Screen. Data for tumor model L1210 Leukemia (intraperitoneal) in B6D2F1 (BDF1) mice
Settings: endpoint: mean survival time, higher = longer survival
Summary of the method: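 Each compound was tested against a transplantable tumor grown in mice. The endpoint was survival, with treated animals benchmarked against vehicle controls as a simple ratio.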

[1] = dose: 100.0 mg/kg/injection, schedule: Q04DX003 (ip), vehicle: saline with Tween-80
[2] = dose: 200.0 mg/kg/injection, schedule: Q04DX003 (ip), vehicle: saline with Tween-80
[3] = dose: 25.0 mg/kg/injection, schedule: Q01DX009 (ip), vehicle: Klucel (hydroxypropylcellulose) (HPC)
[4] = dose: 50.0 mg/kg/injection, schedule: Q01DX009 (ip), vehicle: Klucel (hydroxypropylcellulose) (HPC)
[5] = dose: 100.0 mg/kg/injection, schedule: Q01DX009 (ip), vehicle: Klucel (hydroxypropylcellulose) (HPC)
[6] = dose: 100.0 mg/kg/injection, schedule: Q04DX003 (ip), vehicle: Klucel (hydroxypropylcellulose) (HPC)
[7] = dose: 200.0 mg/kg/injection, schedule: Q04DX003 (ip), vehicle: Klucel (hydroxypropylcellulose) (HPC)
[8] = dose: 200.0 mg/kg/injection, schedule: Q01DX009 (ip), vehicle: Klucel (hydroxypropylcellulose) (HPC)
[9] = dose: 400.0 mg/kg/injection, schedule: Q01DX009 (ip), vehicle: Klucel (hydroxypropylcellulose) (HPC)
[10] = dose: 400.0 mg/kg/injection, schedule: Q04DX003 (ip), vehicle: Klucel (hydroxypropylcellulose) (HPC)
[11] = dose: 12.5 mg/kg/injection, schedule: Q01DX009 (ip), vehicle: Klucel (hydroxypropylcellulose) (HPC)
[12] = dose: 12.5 mg/kg/injection, schedule: Q01DX001 (ip), vehicle: Klucel (hydroxypropylcellulose) (HPC)
[13] = dose: 25.0 mg/kg/injection, schedule: Q01DX001 (ip), vehicle: Klucel (hydroxypropylcellulose) (HPC)
[14] = dose: 50.0 mg/kg/injection, schedule: Q01DX001 (ip), vehicle: Klucel (hydroxypropylcellulose) (HPC)
[15] = dose: 400.0 mg/kg/injection, schedule: Q04DX003 (ip), vehicle: saline with Tween-80
[16] = dose: 100.0 mg/kg/injection, schedule: Q01DX001 (ip), vehicle: Klucel (hydroxypropylcellulose) (HPC)

## O=NN(CCF)C(=O)NC1CCC(C(=O)O)CC1 (centres undefined)
dose: 4.0 mg/kg/injection, schedule: Q01DX001 (ip), vehicle: saline with Tween-80
  T/C: 105 % of control and 106 % of control
dose: 6.0 mg/kg/injection, schedule: Q01DX001 (ip), vehicle: saline with Tween-80
  T/C: 108 % of control
dose: 9.0 mg/kg/injection, schedule: Q01DX001 (ip), vehicle: saline with Tween-80
  T/C: 116 % of control and 119 % of control
dose: 13.0 mg/kg/injection, schedule: Q01DX001 (ip), vehicle: saline with Tween-80
  T/C: 117 % of control
dose: 20.0 mg/kg/injection, schedule: Q01DX001 (ip), vehicle: saline with Tween-80
  T/C: 152 % of control
dose: 30.0 mg/kg/injection, schedule: Q01DX001 (ip), vehicle: saline with Tween-80
  T/C: 263 % of control and 206 % of control
dose: 45.0 mg/kg/injection, schedule: Q01DX001 (ip), vehicle: saline with Tween-80
  T/C: 306 % of control and 432 % of control
dose: 66.0 mg/kg/injection, schedule: Q01DX001 (ip), vehicle: saline with Tween-80
  T/C: 500 % of control

## C(=C(c1ccccc1)c1ccccc1)c1ccccn1
dose: 100.0 mg/kg/injection, schedule: Q01DX009 (ip), vehicle: saline with Tween-80
  T/C: 97 % of control
[1]
  T/C: 98 % of control
dose: 200.0 mg/kg/injection, schedule: Q01DX009 (ip), vehicle: saline with Tween-80
  T/C: 100 % of control
[2]
  T/C: 93 % of control
dose: 400.0 mg/kg/injection, schedule: Q01DX009 (ip), vehicle: saline with Tween-80
  T/C: 97 % of control

## N#CCN1CCCN(CC#N)C1
[3]
  T/C: 96 % of control
[4]
  T/C: 115 % of control
[5]
  T/C: 88 % of control and 91 % of control
[6]
  T/C: 92 % of control
[7]
  T/C: 103 % of control

## O=C(C=C(C(F)(F)F)C(F)(F)F)c1ccc([N+](=O)[O-])cc1
dose: 3.13 mg/kg/injection, schedule: Q01DX009 (ip), vehicle: other
  T/C: 105 % of control
dose: 3.13 mg/kg/injection, schedule: Q04DX003 (ip), vehicle: other
  T/C: 100 % of control
dose: 6.25 mg/kg/injection, schedule: Q01DX009 (ip), vehicle: other
  T/C: 110 % of control
dose: 6.25 mg/kg/injection, schedule: Q04DX003 (ip), vehicle: other
  T/C: 95 % of control
dose: 12.5 mg/kg/injection, schedule: Q04DX003 (ip), vehicle: other
  T/C: 100 % of control and 103 % of control
dose: 25.0 mg/kg/injection, schedule: Q04DX003 (ip), vehicle: other
  T/C: 96 % of control

## NC(=O)c1ccccc1Nc1ccc([N+](=O)[O-])cc1[N+](=O)[O-]
dose: 34.0 mg/kg/injection, schedule: Q01DX Z (ip), vehicle: carboxymethylcellulose (CMC)
  T/C: 95 % of control
dose: 49.0 mg/kg/injection, schedule: Q01DX Z (ip), vehicle: carboxymethylcellulose (CMC)
  T/C: 95 % of control

## COC(=S)S
dose: 100.0 mg/kg/injection, schedule: Q01DX001 (ip), vehicle: saline
  T/C: 108 % of control
dose: 200.0 mg/kg/injection, schedule: Q01DX001 (ip), vehicle: saline
  T/C: 108 % of control
dose: 400.0 mg/kg/injection, schedule: Q01DX001 (ip), vehicle: saline
  T/C: 105 % of control

## Oc1ccc2ccccc2c1N=Nc1ccccn1
dose: 25.0 mg/kg/injection, schedule: Q04DX002 (ip), vehicle: saline with Tween-80
  T/C: 101 % of control
dose: 50.0 mg/kg/injection, schedule: Q04DX002 (ip), vehicle: saline with Tween-80
  T/C: 98 % of control
dose: 100.0 mg/kg/injection, schedule: Q04DX002 (ip), vehicle: saline with Tween-80
  T/C: 95 % of control

## Cc1ccc(-n2c(=S)[nH]c3ccccc3c2=O)cc1C
[5]
  T/C: 90 % of control
[6]
  T/C: 96 % of control
[8]
  T/C: 90 % of control
[7]
  T/C: 93 % of control
[9]
  T/C: 92 % of control
[10]
  T/C: 93 % of control

## NC(=O)N1C(c2ccccc2)C1c1ccccc1 (centres undefined)
[11]
  T/C: 100 % of control
dose: 12.5 mg/kg/injection, schedule: Q04DX003 (ip), vehicle: Klucel (hydroxypropylcellulose) (HPC)
  T/C: 93 % of control
[3]
  T/C: 97 % of control
dose: 25.0 mg/kg/injection, schedule: Q04DX003 (ip), vehicle: Klucel (hydroxypropylcellulose) (HPC)
  T/C: 100 % of control
[4]
  T/C: 100 % of control
dose: 50.0 mg/kg/injection, schedule: Q04DX003 (ip), vehicle: Klucel (hydroxypropylcellulose) (HPC)
  T/C: 92 % of control

## CN(C)N=Nc1cn(C)c(=O)[nH]c1=O
dose: 50.0 mg/kg/injection, schedule: Q04DX003 (ip), vehicle: water
  T/C: 114 % of control
dose: 400.0 mg/kg/injection, schedule: Q04DX003 (ip), vehicle: water
  T/C: 112 % of control

## CCC1(O)CC2CN(CCc3c([nH]c4ccccc34)C(C(=O)OC)(c3cc4c(cc3OC)N(C)C3C(O)(C(=O)NCCSSCCNC(=O)C5(O)C(O)C6(CC)C=CCN7CCC8(c9cc(C%10(C(=O)OC)CC%11CN(CCc%12c%10[nH]c%10ccccc%12%10)CC(O)(CC)C%11)c(OC)cc9N(C)C58)C76)C(O)C5(CC)C=CCN6CCC43C65)C2)C1 (centres undefined)
dose: 1800.0 micrograms/kg/injection, schedule: Q04DX003 (ip), vehicle: saline
  T/C: 154 % of control
dose: 3000.0 micrograms/kg/injection, schedule: Q04DX003 (ip), vehicle: saline
  T/C: 119 % of control

## CC(=O)Nc1ccc2c(O)cc(S(=O)(=O)O)cc2c1
dose: 50.0 mg/kg/injection, schedule: Q01DX009 (ip), vehicle: saline
  T/C: 95 % of control
dose: 100.0 mg/kg/injection, schedule: Q01DX009 (ip), vehicle: saline
  T/C: 99 % of control
dose: 100.0 mg/kg/injection, schedule: Q04DX003 (ip), vehicle: saline
  T/C: 101 % of control
dose: 200.0 mg/kg/injection, schedule: Q01DX009 (ip), vehicle: saline
  T/C: 100 % of control
dose: 200.0 mg/kg/injection, schedule: Q04DX003 (ip), vehicle: saline
  T/C: 104 % of control
dose: 400.0 mg/kg/injection, schedule: Q04DX003 (ip), vehicle: saline
  T/C: 98 % of control

## Cc1cccc(SC(=O)Nc2cc([N+](=O)[O-])ccc2C)c1
[6]
  T/C: 92 % of control
[7]
  T/C: 98 % of control
[10]
  T/C: 97 % of control

## CCCC[P+](CCCC)(CCCC)Cc1ccc([N+](=O)[O-])cc1
[12]
  T/C: 97 % of control
dose: 12.5 mg/kg/injection, schedule: Q04DX002 (ip), vehicle: Klucel (hydroxypropylcellulose) (HPC)
  T/C: 106 % of control
[13]
  T/C: 101 % of control
[3]
  T/C: 99 % of control
dose: 25.0 mg/kg/injection, schedule: Q04DX002 (ip), vehicle: Klucel (hydroxypropylcellulose) (HPC)
  T/C: 106 % of control
[14]
  T/C: 101 % of control
dose: 50.0 mg/kg/injection, schedule: Q04DX002 (ip), vehicle: Klucel (hydroxypropylcellulose) (HPC)
  T/C: 87 % of control

## O=S(=O)(c1ccccc1)C(Br)c1ccc(F)cc1 (centres undefined)
dose: 100.0 mg/kg/injection, schedule: Q04DX002 (ip), vehicle: Klucel (hydroxypropylcellulose) (HPC)
  T/C: 97 % of control
dose: 200.0 mg/kg/injection, schedule: Q04DX002 (ip), vehicle: Klucel (hydroxypropylcellulose) (HPC)
  T/C: 105 % of control
dose: 400.0 mg/kg/injection, schedule: Q04DX002 (ip), vehicle: Klucel (hydroxypropylcellulose) (HPC)
  T/C: 101 % of control

## CCOc1ccc2nc(/C=C\c3cc4c5c(c3)CCCN5CCC4)ccc2c1
[5]
  T/C: 87 % of control
[6]
  T/C: 95 % of control
[8]
  T/C: 97 % of control
[7]
  T/C: 98 % of control
[9]
  T/C: 97 % of control
[10]
  T/C: 98 % of control

## O=C(O)c1cc(I)cc(I)c1
[1]
  T/C: 105 % of control
[2]
  T/C: 101 % of control
[15]
  T/C: 95 % of control

## O=CC(O)C(O)C(O)CO (centres undefined) (tested in a mixture with another compound)
[16]
  T/C: 94 % of control
dose: 200.0 mg/kg/injection, schedule: Q01DX001 (ip), vehicle: Klucel (hydroxypropylcellulose) (HPC)
  T/C: 88 % of control
dose: 400.0 mg/kg/injection, schedule: Q01DX001 (ip), vehicle: Klucel (hydroxypropylcellulose) (HPC)
  T/C: 88 % of control

## CCCCCCCC[Se]CCCCCCCC
[1]
  T/C: 111 % of control
[2]
  T/C: 103 % of control
[15]
  T/C: 103 % of control

## Cc1nnc2ncnc(SCc3ccccc3)c2n1
[12]
  T/C: 100 % of control
[13]
  T/C: 95 % of control and 91 % of control
[14]
  T/C: 93 % of control
[16]
  T/C: 90 % of control

## C=CCN1CCC(C(=O)CC)(c2ccccc2)CC1
[11]
  T/C: 100 % of control
[3]
  T/C: 98 % of control
[4]
  T/C: 106 % of control
